The record followed here is US20240025908A1, “COMPOUND USED AS KINASE INHIBITOR AND USE THEREOF” (TYK MEDICINES, INC., priority 2020, published 2024).

A value given as a limit tells only on which side of the number the result lay.

What all share (type): biochemical
The target of test [1] is ALK (G1202R) (Homo sapiens (Human), UniProt Q9UM73, G1202R). The test can be described thus: Radio-tagged HotSpot kinase assay, ALK (G1202R). As for the experimental part: (§1) Inhibition of protein kinase activity by compounds was carried out on the Radio-tagged HotSpot kinase experimental platform of Reaction Biology Corporation. Fresh reaction solution (20 mM TIEPESpH 7.5, 10 mM MgCl2, 1 mM EGTA, 0.02% Brij35, 0.02 mg/ml BSA, 0.1 mM Na3VO4, 2 mM DTT, […]) containing corresponding substrates was prepared, cofactor and kinase to be tested were added into the above solution and mixed gently. Echo550 pipetting system was used to add the test compound DMSO solution to each well (the blank control group was added with the corresponding volume of DMSO), then 33P-ATP (with a final specific activity of 0.01 μCi/μL) was added to start the reaction. The reaction solution was incubated at room temperature for 120 minutes. Transferred the incubated reaction solution to P81 ion exchange chromatographic paper (Whatman #3698-915), eluted with […] phosphoric acid solution, and the amount of radioactive phosphorylated substrate remaining on the chromatographic paper was detected.

In test [2] the target is ROS1 (Homo sapiens (Human), UniProt P08922). The test can be described thus: Radio-tagged HotSpot kinase assay, ROS1. As for the experimental part: as §1
For test [3], the target named is TRKA (G677C) (Homo sapiens, UniProt P04629, G667C). The test can be described thus: Radio-tagged HotSpot kinase assay, TRKA (G677C). The following applies: read-out: TRKA (G677C) (IC50/nM). As for the experimental part:
as §1

For test [4], the target named is ALK (Homo sapiens (Human), UniProt Q9UM73). Description: Radio-tagged HotSpot kinase assay, ALK. As for the experimental part: as §1
Test [5] deals with TRKA (Homo sapiens (Human), UniProt P04629). Description: Radio-tagged HotSpot kinase assay, TRKA. The method, then:
as §1

Test [6] deals with ROS1 (G2032R) (Homo sapiens (Human), UniProt P08922, G2032R). The test can be described thus: Radio-tagged HotSpot kinase assay, ROS1 (G2032R). The method, then: as §1
ROS1 (G2032R), sequence (P08922 28-2347 G2032R): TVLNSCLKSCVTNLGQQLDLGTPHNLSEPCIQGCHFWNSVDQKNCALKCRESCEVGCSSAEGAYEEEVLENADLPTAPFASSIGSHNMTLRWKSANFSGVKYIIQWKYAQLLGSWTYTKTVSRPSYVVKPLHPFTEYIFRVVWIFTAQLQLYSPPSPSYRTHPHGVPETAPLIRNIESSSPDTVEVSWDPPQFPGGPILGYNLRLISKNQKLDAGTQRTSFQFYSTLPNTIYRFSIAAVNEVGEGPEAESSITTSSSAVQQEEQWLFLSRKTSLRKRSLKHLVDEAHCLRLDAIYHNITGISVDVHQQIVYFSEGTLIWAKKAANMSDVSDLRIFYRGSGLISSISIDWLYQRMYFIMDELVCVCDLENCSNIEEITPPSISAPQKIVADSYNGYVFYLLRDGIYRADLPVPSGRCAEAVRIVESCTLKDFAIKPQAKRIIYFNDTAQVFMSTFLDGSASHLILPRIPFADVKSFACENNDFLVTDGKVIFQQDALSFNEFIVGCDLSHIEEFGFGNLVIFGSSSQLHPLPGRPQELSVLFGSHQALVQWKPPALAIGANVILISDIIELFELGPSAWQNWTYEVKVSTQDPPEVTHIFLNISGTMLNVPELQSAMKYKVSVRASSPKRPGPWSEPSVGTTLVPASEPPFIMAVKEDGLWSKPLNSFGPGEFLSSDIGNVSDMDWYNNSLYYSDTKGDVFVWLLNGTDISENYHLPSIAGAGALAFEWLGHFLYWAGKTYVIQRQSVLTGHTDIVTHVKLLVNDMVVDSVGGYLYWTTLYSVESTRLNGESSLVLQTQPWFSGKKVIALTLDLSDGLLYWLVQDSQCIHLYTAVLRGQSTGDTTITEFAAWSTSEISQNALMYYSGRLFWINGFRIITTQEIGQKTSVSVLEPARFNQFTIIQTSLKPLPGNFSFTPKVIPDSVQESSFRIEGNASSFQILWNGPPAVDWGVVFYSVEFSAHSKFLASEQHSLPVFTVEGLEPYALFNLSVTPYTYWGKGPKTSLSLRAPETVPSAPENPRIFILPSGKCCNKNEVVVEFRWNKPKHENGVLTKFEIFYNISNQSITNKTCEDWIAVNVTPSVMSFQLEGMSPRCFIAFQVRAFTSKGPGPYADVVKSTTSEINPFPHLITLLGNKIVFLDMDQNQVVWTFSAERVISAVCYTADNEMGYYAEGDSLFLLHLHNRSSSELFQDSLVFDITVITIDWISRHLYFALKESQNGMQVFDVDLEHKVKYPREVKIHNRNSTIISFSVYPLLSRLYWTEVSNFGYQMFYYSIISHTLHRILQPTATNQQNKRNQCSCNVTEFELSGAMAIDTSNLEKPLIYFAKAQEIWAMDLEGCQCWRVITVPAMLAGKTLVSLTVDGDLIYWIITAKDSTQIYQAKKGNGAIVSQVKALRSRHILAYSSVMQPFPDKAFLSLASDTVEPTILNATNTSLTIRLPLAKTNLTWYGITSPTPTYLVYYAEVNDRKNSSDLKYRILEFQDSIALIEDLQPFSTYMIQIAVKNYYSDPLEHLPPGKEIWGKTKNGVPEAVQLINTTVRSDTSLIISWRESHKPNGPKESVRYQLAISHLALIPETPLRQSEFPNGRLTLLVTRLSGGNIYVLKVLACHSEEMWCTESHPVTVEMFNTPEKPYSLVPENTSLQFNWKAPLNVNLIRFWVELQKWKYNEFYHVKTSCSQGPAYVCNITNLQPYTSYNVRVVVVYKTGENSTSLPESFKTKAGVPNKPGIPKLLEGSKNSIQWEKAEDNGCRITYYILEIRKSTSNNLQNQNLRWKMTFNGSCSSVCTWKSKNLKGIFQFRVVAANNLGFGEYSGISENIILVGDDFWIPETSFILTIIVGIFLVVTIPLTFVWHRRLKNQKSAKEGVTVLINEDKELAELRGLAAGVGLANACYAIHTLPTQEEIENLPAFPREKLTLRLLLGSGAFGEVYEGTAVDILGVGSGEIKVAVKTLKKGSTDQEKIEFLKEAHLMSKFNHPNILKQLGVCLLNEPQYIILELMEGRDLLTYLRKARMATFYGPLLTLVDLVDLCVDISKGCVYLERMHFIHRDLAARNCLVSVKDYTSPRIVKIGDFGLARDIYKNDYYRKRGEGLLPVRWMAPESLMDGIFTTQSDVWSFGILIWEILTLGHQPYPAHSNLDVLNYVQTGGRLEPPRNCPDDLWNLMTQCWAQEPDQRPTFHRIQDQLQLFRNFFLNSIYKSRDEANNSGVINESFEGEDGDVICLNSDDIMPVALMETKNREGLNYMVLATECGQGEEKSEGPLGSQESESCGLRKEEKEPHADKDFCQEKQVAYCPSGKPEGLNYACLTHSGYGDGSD

ROS1, sequence (P08922 28-2347): as the sequence (P08922 28-2347 G2032R) above, with R2005G counted along it
TRKA, sequence (P04629 33-796): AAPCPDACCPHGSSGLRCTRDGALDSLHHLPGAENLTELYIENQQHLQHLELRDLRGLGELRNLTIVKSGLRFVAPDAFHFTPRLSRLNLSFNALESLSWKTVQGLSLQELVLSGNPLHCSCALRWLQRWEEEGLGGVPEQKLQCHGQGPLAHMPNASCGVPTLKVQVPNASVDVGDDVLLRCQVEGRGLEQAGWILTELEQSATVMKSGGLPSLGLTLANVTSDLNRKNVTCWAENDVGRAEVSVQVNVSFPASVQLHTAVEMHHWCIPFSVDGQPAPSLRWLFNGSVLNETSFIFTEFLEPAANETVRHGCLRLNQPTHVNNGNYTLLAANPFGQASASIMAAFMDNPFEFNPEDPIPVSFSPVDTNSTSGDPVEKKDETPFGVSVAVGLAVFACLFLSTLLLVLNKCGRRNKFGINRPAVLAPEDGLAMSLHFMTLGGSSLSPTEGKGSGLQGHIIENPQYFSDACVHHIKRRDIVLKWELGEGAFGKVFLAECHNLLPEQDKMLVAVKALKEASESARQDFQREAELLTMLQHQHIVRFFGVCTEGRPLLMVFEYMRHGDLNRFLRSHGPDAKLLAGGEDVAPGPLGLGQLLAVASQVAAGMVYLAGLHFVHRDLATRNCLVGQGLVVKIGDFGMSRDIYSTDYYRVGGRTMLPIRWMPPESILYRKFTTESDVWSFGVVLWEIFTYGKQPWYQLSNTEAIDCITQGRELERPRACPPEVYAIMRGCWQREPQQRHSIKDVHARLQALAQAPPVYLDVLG
TRKA (G677C), sequence (P04629 33-796 G667C limits assumed): as the sequence (P04629 33-796) above, with G635C counted along it
ALK, sequence (Q9UM73 19-1620): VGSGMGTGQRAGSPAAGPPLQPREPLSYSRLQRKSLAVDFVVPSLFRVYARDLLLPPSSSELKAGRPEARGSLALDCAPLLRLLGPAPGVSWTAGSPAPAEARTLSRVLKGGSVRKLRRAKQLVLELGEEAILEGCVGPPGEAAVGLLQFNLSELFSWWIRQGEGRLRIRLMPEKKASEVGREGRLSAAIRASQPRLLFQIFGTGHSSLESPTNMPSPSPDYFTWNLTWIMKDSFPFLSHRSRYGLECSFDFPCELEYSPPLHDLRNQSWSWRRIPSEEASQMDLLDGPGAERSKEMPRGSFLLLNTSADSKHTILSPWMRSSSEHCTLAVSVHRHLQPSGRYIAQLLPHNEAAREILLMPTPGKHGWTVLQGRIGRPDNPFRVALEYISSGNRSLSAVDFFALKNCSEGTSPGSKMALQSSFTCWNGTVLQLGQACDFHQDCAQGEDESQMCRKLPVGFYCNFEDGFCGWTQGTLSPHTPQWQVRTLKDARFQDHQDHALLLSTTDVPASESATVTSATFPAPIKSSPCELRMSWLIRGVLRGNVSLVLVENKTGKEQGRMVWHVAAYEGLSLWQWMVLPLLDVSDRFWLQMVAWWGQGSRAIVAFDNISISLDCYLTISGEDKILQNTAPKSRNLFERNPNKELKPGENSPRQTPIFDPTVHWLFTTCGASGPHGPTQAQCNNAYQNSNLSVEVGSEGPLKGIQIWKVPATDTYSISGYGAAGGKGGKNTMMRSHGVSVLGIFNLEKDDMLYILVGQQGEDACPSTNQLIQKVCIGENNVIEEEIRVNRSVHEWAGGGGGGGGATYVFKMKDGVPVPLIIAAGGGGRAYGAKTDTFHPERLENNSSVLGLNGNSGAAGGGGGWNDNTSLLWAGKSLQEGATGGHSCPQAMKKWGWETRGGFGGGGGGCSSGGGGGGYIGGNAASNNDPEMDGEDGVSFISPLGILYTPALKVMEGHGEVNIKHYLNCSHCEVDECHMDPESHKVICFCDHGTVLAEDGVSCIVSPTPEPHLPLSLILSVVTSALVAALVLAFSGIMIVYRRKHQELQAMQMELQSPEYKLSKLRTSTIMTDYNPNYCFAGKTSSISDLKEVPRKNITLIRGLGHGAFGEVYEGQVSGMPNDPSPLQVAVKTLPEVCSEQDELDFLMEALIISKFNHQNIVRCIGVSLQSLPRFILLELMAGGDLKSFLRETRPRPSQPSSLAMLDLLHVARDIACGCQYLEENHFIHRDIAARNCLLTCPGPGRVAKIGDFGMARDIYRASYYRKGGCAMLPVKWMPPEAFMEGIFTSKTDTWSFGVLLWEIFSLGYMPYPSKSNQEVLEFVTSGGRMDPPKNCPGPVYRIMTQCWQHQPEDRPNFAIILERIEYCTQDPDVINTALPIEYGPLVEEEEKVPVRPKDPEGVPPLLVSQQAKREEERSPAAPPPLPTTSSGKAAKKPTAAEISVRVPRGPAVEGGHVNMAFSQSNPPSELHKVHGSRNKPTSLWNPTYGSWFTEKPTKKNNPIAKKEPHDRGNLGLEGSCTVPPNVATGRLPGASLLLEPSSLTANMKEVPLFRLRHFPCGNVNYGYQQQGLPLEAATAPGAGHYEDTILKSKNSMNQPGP
ALK (G1202R), sequence (Q9UM73 19-1620 G1202R): as the sequence (Q9UM73 19-1620) above, with G1184R counted along it

For the molecule `COc1ccc(F)cc1[C@@H](C)Nc1ccn2ncc(NC3=NC(C)(C)CO3)c2n1` [Example 1], the IC50 was 5 to 50 nM in test [1]; 0.5 to 5 nM in test [2]; 0.5 to 5 nM in test [3]; 0.5 to 5 nM in test [4]; 0.5 to 5 nM in test [5]; 0.5 to 5 nM in test [6].

For `C[C@@H](Nc1ccn2ncc(NC3=NC(C)(C)CO3)c2n1)c1cc(F)cc(F)c1F` [Example 2], the IC50 lay in the range of 5 to 50 nM in test [1]; 0.5 to 5 nM in test [2]; 0.5 to 5 nM in test [3]; 0.5 to 5 nM in test [4]; 0.5 to 5 nM in test [5]; 0.5 to 5 nM in test [6].

As to `C[C@@H](Nc1ccn2ncc(C3=NOCCN3)c2n1)c1cc(F)cc(F)c1F` [Example 3], the IC50 in test [1] is 0.5 to 5 nM; in test [2] it was less than 0.5 nM; in test [3] it was less than 0.5 nM; in test [4], 0.5 to 5 nM; in test [5], less than 0.5 nM; in test [6], less than 0.5 nM.

For the molecule `C[C@@H](Nc1ccn2ncc(C3=NN=CC(C)(C)N3)c2n1)c1cc(F)cc(F)c1F` [Example 5], the IC50 in test [1] lay in the range of 5 to 50 nM; in test [2], 0.5 to 5 nM; in test [3], 5 to 50 nM; in test [4], 5 to 50 nM; in test [5] it was 0.5 to 5 nM; in test [6], 5 to 50 nM.

Regarding `C[C@@H](Nc1ccn2ncc(C3=NC(=O)C(C)(C)N3)c2n1)c1cc(F)cc(F)c1F` [Example 8], the IC50 in test [1] is 5 to 50 nM; in test [2] it was less than 0.5 nM; in test [3] it was less than 0.5 nM; in test [4] it was 0.5 to 5 nM; in test [5], less than 0.5 nM; in test [6], less than 0.5 nM.

Turning to `COc1ncc(F)cc1[C@@H](C)Nc1ccn2ncc(C3=NC(=O)C(C)(C)N3)c2n1` [Example 10], the IC50 is 5 to 50 nM in test [1]; less than 0.5 nM in test [2]; less than 0.5 nM in test [3]; 0.5 to 5 nM in test [4]; less than 0.5 nM in test [5]; less than 0.5 nM in test [6].

For `CCCOC(=O)/N=C(\N)c1cnn2ccc(N[C@H](C)c3cc(F)cc(F)c3F)nc12` [Example 11], the IC50 in test [1] lay within 50 to 500 nM; in test [2], 0.5 to 5 nM; in test [3] it was 5 to 50 nM; in test [4] it was 50 to 500 nM; in test [5], 0.5 to 5 nM; in test [6], 5 to 50 nM.

For the molecule `COc1ccc(F)cc1[C@@H](C)Nc1ccn2ncc(NC3=NC(C)(C)CN3)c2n1` [Example 12], the IC50 in test [1] was 5 to 50 nM; in test [2] it was 0.5 to 5 nM; in test [3], 5 to 50 nM; in test [4], 5 to 50 nM; in test [5], 0.5 to 5 nM; in test [6], 5 to 50 nM.

With `C[C@@H](Nc1ccn2ncc(C(=O)NOCCO)c2n1)c1cc(F)cc(F)c1F` [Example 13], the IC50 was 50 to 500 nM in test [1]; 5 to 50 nM in test [2]; 50 to 500 nM in test [3]; 50 to 500 nM in test [4]; 5 to 50 nM in test [5]; 50 to 500 nM in test [6].

For the molecule `COc1ccc(F)cc1[C@@H](C)Nc1ccn2ncc(OC3=NC(C)(C)CN3)c2n1` [Example 14], the IC50 in test [1] is 50 to 500 nM; in test [2], 0.5 to 5 nM; in test [3], 5 to 50 nM; in test [4], 50 to 500 nM; in test [5] it was 0.5 to 5 nM; in test [6], 5 to 50 nM.

Turning to `C[C@@H](Nc1ccn2ncc(OC3=NCC(C)(C)N3)c2n1)c1cc(F)cc(F)c1F` [Example 15], the IC50 in test [1] lay in the range of 50 to 500 nM; in test [2], 0.5 to 5 nM; in test [3], 5 to 50 nM; in test [4], 50 to 500 nM; in test [5], 0.5 to 5 nM; in test [6] it was 5 to 50 nM.

On to `C[C@@H](Nc1ccn2ncc(C3=NOCC(C)(C)N3)c2n1)c1cc(F)ccc1OC(F)F` [Example 16], for which the IC50 is 50 to 500 nM in test [1]; 0.5 to 5 nM in test [2]; 5 to 50 nM in test [3]; 5 to 50 nM in test [4]; 0.5 to 5 nM in test [5]; 5 to 50 nM in test [6].

For `C[C@@H](Nc1ccn2ncc(NC3=NCC(C)(C)N3)c2n1)c1cc(F)cc(F)c1F` [Example 17], the IC50 in test [1] fell in the range of 50 to 500 nM; in test [2] it was 0.5 to 5 nM; in test [3], 5 to 50 nM; in test [4], 50 to 500 nM; in test [5], 0.5 to 5 nM; in test [6], 5 to 50 nM.

For the molecule `COc1c(F)cc(F)cc1[C@@H](C)Nc1ccn2ncc(NC3=NC(C)(C)CO3)c2n1` [Example 18], the IC50 was in the range of 50 to 500 nM in test [1]; 0.5 to 5 nM in test [2]; 5 to 50 nM in test [3]; 5 to 50 nM in test [4]; 0.5 to 5 nM in test [5]; 5 to 50 nM in test [6].

In the case of `C[C@@H](Nc1ccn2ncc(C3=NOCCN3)c2n1)c1cc(F)cc(C(F)(F)F)c1F` [Example 19], the IC50 in test [1] lay in the range of 50 to 500 nM; in test [2], 0.5 to 5 nM; in test [3] it was 5 to 50 nM; in test [4], 5 to 50 nM; in test [5] it was 0.5 to 5 nM; in test [6] it was 5 to 50 nM.

Regarding `COc1c(F)cc(F)cc1[C@@H](C)Nc1ccn2ncc(C3=NC(=O)C(C)(C)N3)c2n1` [Example 20], the IC50 was 5 to 50 nM in test [1]; less than 0.5 nM in test [2]; 0.5 to 5 nM in test [3]; 0.5 to 5 nM in test [4]; less than 0.5 nM in test [5]; 0.5 to 5 nM in test [6].

With `C[C@@H](Nc1ccn2ncc(C3=NC(=O)C(C)(C)N3)c2n1)c1cc(F)ccc1OC(F)(F)F` [Example 21], the IC50 is 5 to 50 nM in test [1]; less than 0.5 nM in test [2]; 0.5 to 5 nM in test [3]; 0.5 to 5 nM in test [4]; less than 0.5 nM in test [5]; 0.5 to 5 nM in test [6].

With `CCOc1ncc(F)cc1[C@@H](C)Nc1ccn2ncc(C3=NOCCN3)c2n1` [Example 22], the IC50 in test [1] was 5 to 50 nM; in test [2] it was less than 0.5 nM; in test [3] it was 0.5 to 5 nM; in test [4], 0.5 to 5 nM; in test [5], less than 0.5 nM; in test [6], 0.5 to 5 nM.

On to `C[C@@H](Nc1ccn2ncc(C3=NC(=O)C(C)(C)N3)c2n1)c1cc(F)cnc1OCC(F)(F)F` [Example 23], for which the IC50 in test [1] was 50 to 500 nM; in test [2], less than 0.5 nM; in test [3], 0.5 to 5 nM; in test [4], 5 to 50 nM; in test [5], less than 0.5 nM; in test [6], 0.5 to 5 nM.

Take `CONC(=O)c1cnn2ccc(N[C@H](C)c3cc(F)cc(F)c3F)nc12` [Example 24]: the IC50 was 50 to 500 nM in test [1]; 5 to 50 nM in test [2]; 50 to 500 nM in test [3]; 5 to 50 nM in test [4]; 5 to 50 nM in test [5]; 50 to 500 nM in test [6].

In the case of `C[C@@H](Nc1ccn2ncc(C3=NC(=O)C(C)(C)N3)c2n1)c1cc(F)cnc1OC(F)(F)F` [Example 25], the IC50 was 5 to 50 nM in test [1]; less than 0.5 nM in test [2]; 0.5 to 5 nM in test [3]; 0.5 to 5 nM in test [4]; less than 0.5 nM in test [5]; 0.5 to 5 nM in test [6].

Regarding `C[C@@H](Nc1ccn2ncc(C3=NOCCN3)c2n1)c1cc(F)ccc1C(F)(F)F` [Example 27], the IC50 in test [1] was in the range of 50 to 500 nM; in test [2], 0.5 to 5 nM; in test [3], 50 to 500 nM; in test [4] it was 5 to 50 nM; in test [5], 0.5 to 5 nM; in test [6], 50 to 500 nM.

In the case of `C[C@@H](Nc1ccn2ncc(C3=NOCCN3)c2n1)c1cc(F)ccc1C(F)F` [Example 28], the IC50 fell in the range of 50 to 500 nM in test [1]; 0.5 to 5 nM in test [2]; 50 to 500 nM in test [3]; 5 to 50 nM in test [4]; 0.5 to 5 nM in test [5]; 50 to 500 nM in test [6].
